Results: patent US10864202B2, “Inhibitors of lysine specific demethylase-1” (CELGENE QUANTICEL RESEARCH, INC., priority 2014, dated 2020)

Columns and labels:
[1] = system: THP-1 (AML) cells; experiment: LSD1 CD11b cellular assay (flow cytometry); format: cell-based; conditions: Homo sapiens, 96 h; CD11b expression in THP-1 cells, 4 days incubation
Description: To analyze LSD1 inhibitor efficacy in cells, a CD11b flow cytometry assay was performed. LSD1 inhibition induces CD11b expression in THP-1 (AML) cells which can be measured by flow cytometry. […] LSD1 test compounds were serially diluted in DMSO. The dilutions were added to each well accordingly to a final concentration of 0.2% DMSO. The cells were incubated at 37 degrees Celsius in 5% CO2 for 4 days. 250 μL of each well was transferred to a well in a 96 well round bottom plate. The plate was centrifuged at 1200 rpm at 4 degrees Celsius in a Beckman Coulter Alegra 6KR centrifuge for 5 minutes. The media was removed leaving the cells at the bottom of the wells. The cells were washed in 100 μL cold HBSS (Hank's Balanced Salt Solution) plus 2% BSA (Bovine Serum Albumin) solution and centrifuged at 1200 rpm at 4 degrees Celsius for 5 minutes. The wash was removed. […] The cells were centrifuged and washed two times in 100 μl HBSS plus 2% BSA. After the final spin the cells were resuspended in 100 μL HBSS plus 2% BSA containing 1 ug/mL DAPI (4′,6-diamidino-2-phenylindole). The cells were then analyzed by flow cytometry in a BD FACSAria machine. Cells were analyzed for CD11b expression. The percent of CD11b expressing cells for each inhibitor concentration was used to determine an IC50 curve for each compound analyzed.

[2] = biological target: human LSD1 (Homo sapiens (Human), UniProt O60341); experiment: In vitro enzyme inhibition assay LSD-1 (TR-FRET); format: biochemical; conditions: full-length human LSD1, H3K4me1-biotin peptide
Description: This assay determines the ability of a test compound to inhibit LSD1 demethylase activity.
The enzymatic assay of LSD1 activity is based on Time Resolved-Fluorescence Resonance Energy Transfer (TR-FRET) detection.
The ability of the compounds disclosed herein to inhibit LSD1 activity was quantified and the respective IC50 value was determined.

Q: How did the IC50 [1] turn out when `N#Cc1ccc(-c2nc(NCC3CCNC3)ncc2C#CC2CC2)cc1` (stereo not shown) [Example 26] was run?
A: 100 to 1000 nM

Q: For `N#Cc1ccc(-c2nc(N3CC4CNCC(C3)O4)ncc2-c2ccc(F)cc2)cc1` [Example 42, 4-[5-(4-fluorophenyl)-2-{9-oxa-3,7-diazabicyclo[3.3.1]nonan-3-yl}pyrimidin-4-yl]benzonitrile], which IC50 [2] is on record?
A: 100 to 1000 nM

Q: How did the IC50 [2] turn out when `Cc1ccc(-c2cnc(NCC3CCCNC3)nc2-c2ccc(C#N)cc2)cc1` (racemic) [Example 31, (±)-4-5-(4-methylphenyl)-2-[(piperidin-3-ylmethyl)amino]pyrimidin-4-yl]benzonitrile] was run?
A: < 100 nM

Q: Which IC50 [2] does the source give for `N#Cc1ccc(-c2cc3c(ccn3C[C@@H]3CCNC3)nc2N2CCOCC2)cc1` [Example 6] here?
A: 100 to 1000 nM

Q: `N#Cc1ccc(-c2cc3c(ccn3C[C@H]3CCNC3)nc2Cl)cc1` [Example 4] was tested. Which IC50 [2] did it give?
A: 100 to 1000 nM

Q: For `Cc1ccc(-c2cnc(N[C@@H]3C[C@H]4CNC[C@H]4C3)nc2-c2ccc(C#N)cc2)cc1` [Example 27], which IC50 [2] is on record?
A: 100 to 1000 nM

Q: Which IC50 [2] does the source give for `N#Cc1ccc(-c2cc3c(ccn3CC3(F)CCNC3)nc2N2CCOCC2)cc1` (stereo not shown) [Example 8, 4-[1-[(3-fluoropyrrolidin-3-yl)methyl]-5-morpholin-4-ylpyrrolo[3,2-b]pyridin-6-yl]benzonitrile] here?
A: 100 to 1000 nM

Q: `Cc1ccc(-c2cnc(N3CC4CNCC(C3)O4)nc2-c2ccc(C#N)cc2)cc1` [Example 41, 4-[5-(4-methylphenyl)-2-{9-oxa-3,7-diazabicyclo[3.3.1]nonan-3-yl}pyrimidin4-yl]benzonitrile] was tested. Which IC50 [2] did it give?
A: 100 to 1000 nM

Q: With `N#Cc1ccc(-c2nc(NC[C@H]3CCNC3)ncc2Cl)cc1` [Example 17, 4-(5-chloro-2-{[(3S)-pyrrolidin-3-ylmethyl]amino}pyrimidin-4-yl)benzonitrile] as the compound, how does the IC50 [2] read?
A: 100 to 1000 nM

Q: Which IC50 [2] does the source give for `Cc1ccc(-c2cnc(NCC3CNCCO3)nc2-c2ccc(C#N)cc2)cc1` (racemic) [Example 33, (±)-4-[5-(4-methylphenyl)-2-[(morpholin-2-ylmethyl)amino]pyrimidin-4-yl]benzonitrile] here?
A: < 100 nM
